Laboratory results: patent US20210302113A1, “FLUORINATED DIAMINOOLEFINS AND METHODS OF USING THE SAME” (3M INNOVATIVE PROPERTIES COMPANY, priority 2017, published 2021)

Test: Thermal stability with absorbents, GC-FID purity after stirring at 60° C. for 24 h
Type: physicochemical
Experimental: The thermal stability was measured by charging a weighed amount of (E)-1,4-bis(perfluoromorpholino)but-2-ene (having a purity of 98.8%) into glass vials and then adding a weighed amount of absorbent. (The purity of the composition was measured by analyzing the sample using GC-FID and comparing the area of the peak of interest to the total peak areas in the chromatogram.) The mixture was stirred at 60° C. for 24 h and then analyzed by GC-FID. The percent purity of the treated sample was determined by the peak area of the (E)-1,4-bis(perfluoromorpholino)but-2-ene peak versus the total peak areas in the GC-FID chromatogram.

## FC1(F)OC(F)(F)C(F)(F)N(C/C=C/CN2C(F)(F)C(F)(F)OC(F)(F)C2(F)F)C1(F)F [(E)-1,4-bis(perfluoromorpholino)but-2-ene]
4 Angstrom Molecular Sieves, starting purity 98.8%
  GC Purity: 98.8%
Activated Carbon, starting purity 98.8%
  GC Purity: 98.8%
Basic Alumina, starting purity 98.8%
  GC Purity: 99.5%
K2CO3, starting purity 98.8%
  GC Purity: 98.9%
No Adsorbent, starting purity 98.8%
  GC Purity: 98.8%
Silica Gel, starting purity 98.8%
  GC Purity: 98.8%
